Patent US20090149432A1, “METHODS FOR ADMINISTERING CORTICOSTEROID FORMULATIONS” (priority 2007, published 2009)
Where two headings read alike, the source gives them in different places.

What was measured:
[1] = system: hypothalamus-pituitary-adrenal (HPA) axis; assay: ACTH-induced plasma cortisol levels in children after six weeks of treatment; format: in vivo, human (children); conditions: doses of Tables 3 and 4
Text: An important measure of systemic exposure to corticosteroids is the level of endogenous cortisols in the blood. Excess exogenous corticosteroids will suppress natural production of cortisols due to the suppression of the adrenal cortex. […] Both these changes are statistically insignificant.

[2] = Plasma budesonide pharmacokinetics in asthmatic children, twice a day nebulization over six weeks; format: in vivo, human (asthmatic children); conditions: for AUC0-inf (geometric mean): nebulized; for AUC0-inf (geometric mean) / Cmax (geometric mean) / Cmax at 42 days / Cmax / half-life at 42 days / Tmax at 42 days / half-life / Tmax: asthmatic children; for Cmax at 42 days / Cmax / half-life at 42 days / Tmax at 42 days / half-life / Tmax / Tmax at 6 weeks: human, plasma, inhaled; for Cmax at 42 days / Cmax: read-out: Cmax (geometric mean); for half-life at 42 days / half-life: read-out: T1/2 (geometric mean); for Tmax at 42 days / Tmax: read-out: Tmax (geometric mean) (converted); for Tmax at 6 weeks: read-out: Tmax averaged over 6 weeks (converted)
Method: The budesonide was administered twice a day by a nebulizer for six weeks (42 days). In one subset, budesonide was administered at a dose of 0.25 mg. In the other subset, budesonide was administered at a dose of 0.135 mg.
Tmaxs averaged about 4.3 minutes (SD±0.63 minutes) for the two dosage strengths and time of treatment that ranged from zero to six weeks. […] The Cmaxs and AUCs (area under the curve) obtained for the two different dosage strengths were below levels that would induce side effects due to systemic exposure. […] Murphy et al.'s dosing regimen of 1.0 mg twice a day (bid) was the same as that for Pulmicort Respules when the pharmacokinetics of Pulmicort Respules was being assessed by Astrazeneca (Pharmacokinetics section of Pulmicort Respules label insert).

In the case of `CCCC1O[C@@H]2C[C@H]3[C@@H]4CCC5=CC(=O)C=C[C@]5(C)[C@H]4[C@@H](O)C[C@]3(C)[C@]2(C(=O)CO)O1` (some centres unmarked) [Budesonide, budesonide], the HPA axis suppression [1] was “no evidence of hypothalamus-pituitary-adrenal (HPA) axis suppression”, the “AUC0-inf (geometric mean)” value ([2]; 0.135 mg dose twice a day, Day 42) was 22,071 pg-min/mL and the “AUC0-inf (geometric mean)” value ([2]; 0.135 mg dose twice a day, First Dose) was 10,238 pg-min/mL. The “change of AUC0-inf” value ([2]; 0.135 mg dose, by week six of dosing) was “more than doubled”, the “change of Cmax” value ([2]; 0.135 mg dose, initial dosing to week six) was “more than tripling” and the “Cmax (geometric mean)” value ([2]; 0.135 mg dose, Day 42) was 0.6721 ng/mL. For the same molecule, the “Cmax (geometric mean)” value ([2]; 0.135 mg dose, First Dose) was 0.2144 ng/mL, the “Cmax to AUC0-inf ratio” value ([2]; 0.135 mg dose, standard deviation less than approximately 0.006 min^−1) was “approximately 0.02 min^−1” and the “AUC0-inf (geometric mean)” value ([2]; 0.25 mg dose twice a day, Day 42) was 33,116 pg-min/mL. For the same molecule, the “AUC0-inf (geometric mean)” value ([2]; 0.25 mg dose twice a day, Day 42, listed as budesonide) was “about 33,116 pg-min/mL”, the “AUC0-inf (geometric mean)” value ([2]; 0.25 mg dose twice a day, First Dose) was 20,849 pg-min/mL and the “AUC0-inf (geometric mean)” value ([2]; 0.25 mg dose twice a day, First Dose, listed as budesonide) was “about 20,849 pg-min/mL”. For the same molecule, the “Cmax to AUC0-inf ratio” value ([2]; 0.25 mg dose, standard deviation less than approximately 0.007 min^−1) was “approximately 0.025 min^−1”, the “change of Cmax” value ([2]; 0.25 mg, after 42 days (six weeks) of dosing) was “at least double” and the “increase of AUC0-inf, times its value at first dose” value ([2]; 0.25 mg, repeat dosing for six weeks) was “about 1.6 times”. It also gave a Cmax at 42 days ([2]; 0.135 mg, Day 42) of ~0.672 ng/mL, a Cmax ([2]; 0.135 mg, First Dose) of ~0.214 ng/mL and a Cmax at 42 days ([2]; 0.25 mg, Day 42) of 0.746 ng/mL. It also gave a Cmax ([2]; 0.25 mg, First Dose) of 0.321 ng/mL, a half-life at 42 days ([2]; 0.135 mg dose, Day 42) of 71.3 min and a Tmax at 42 days ([2]; 0.135 mg dose, Day 42) of 4.4 min. For the same molecule, the half-life ([2]; 0.135 mg dose, First Dose) was 42.1 min, the Tmax ([2]; 0.135 mg dose, First Dose) was 4.4 min and the Tmax at 6 weeks ([2]; 0.135 mg dose) was 4.4 min. For the same molecule, the half-life at 42 days ([2]; 0.25 mg dose, Day 42) was 75.7 min, the Tmax at 42 days ([2]; 0.25 mg dose, Day 42) was 5 min and the half-life ([2]; 0.25 mg dose, First Dose) was 155 min. The Tmax ([2]; 0.25 mg dose, First Dose) was 3.3 min and the Tmax at 6 weeks ([2]; 0.25 mg dose) was 4.1 min.
